These compounds were tested on Human venous whole blood (IFN-γ) (assay: Human whole blood IFN-γ assay). Conditions: Homo sapiens, 24 h, human whole blood, anti-CD3 plus anti-CD28, 24 hours; read-out: INFg Whole Blood Normalized Agonist EC50.
Type: cell-based
Protocol: Assay 10: Human Whole Blood IFN-γ Assay
Human venous whole blood (22.5 μL per well), obtained from healthy donors, was pre-treated with compounds for one hour at 37° C. in a humidified 95% air/5% CO2 incubator. The blood was stimulated with 2.5 μL anti-human CD3 and anti-CD28 mAb at a final concentration of 1 μg/mL each for 24 hours at 37° C. IFN-γ in the supernatants was measured using AlphLISA kit (Cat #AL217).
CC[C@@H]1CN(c2cc(=O)n(C)c3ccc(C#N)nc23)CC[C@H]1Oc1cccc(C2CC2)c1 [Example 156, 8-((3R,4R)-4-(3-cyclopropylphenoxy)-3-ethylpiperidin-1-yl)-5-methyl-6-oxo-5,6-dihydro-1,5-naphthyridine-2-carbonitrile] showed an EC50 of 1.8 µM.
For C[C@@H]1CN(c2cc(=O)n(C)c3ccc(C#N)nc23)CC[C@H]1Oc1ccc(C(C)(C)C)cc1 (single isomer, unassigned) [Example 90], the EC50 was 5.6 µM.
C[C@@H]1CN(c2cc(=O)n(C)c3ccc(C#N)nc23)CC[C@H]1Oc1c(F)cccc1F [Example 125, 8-((3R,4R)-4-(2,6-difluorophenoxy)-3-methylpiperidin-1-yl)-5-methyl-6-oxo-5,6-dihydro-1,5-naphthyridine-2-carbonitrile] showed an EC50 of 20 µM.
With CC[C@@H]1CN(c2cc(=O)n(C)c3ccc(C#N)nc23)CC[C@H]1Oc1cccc(C2CC2)c1 (racemic) [Example 155, 8-((3R,4R)-4-(3-cyclopropylphenoxy)-3-ethylpiperidin-1-yl)-5-methyl-6-oxo-5,6-dihydro-1,5-naphthyridine-2-carbonitrile] the EC50 was 20 µM.
In the case of C[C@@H]1CN(c2cc(=O)n(C)c3ccc(C#N)nc23)CC[C@H]1Oc1ccc(F)cc1 (single isomer, unassigned) [Example 129], the EC50 is reported as 20 µM.
For C[C@@H]1CN(c2cc(=O)n(C)c3ccc(C#N)nc23)CC[C@H]1Oc1ccc(OC(F)(F)F)cc1 (single isomer, unassigned) [Example 80, 6-cyano-1-methyl-4-(trans-3-methyl-4-(4-(trifluoromethoxy)phenoxy)piperidin-1-yl)-1,5-naphthyridin-2(1H)-one (rel)], the EC50 was 2.4 µM.
C[C@@H]1CN(c2cc(=O)n(C)c3ccc(C#N)nc23)CC[C@H]1Oc1c(F)cccc1C(F)(F)F (racemic) [Example 124, 8-((3R,4R)-4-(2-fluoro-6-(trifluoromethyl)phenoxy)-3-methylpiperidin-1-yl)-5-methyl-6-oxo-5,6-dihydro-1,5-naphthyridine-2-carbonitrile] showed an EC50 of 20 µM.
Compound CCc1ccc(O[C@@H]2CCN(c3cc(=O)n(C)c4ccc(C#N)nc34)C[C@H]2C)cc1 (racemic) [Example 110, 8-((3R,4R)-4-(4-ethylphenoxy)-3-methylpiperidin-1-yl)-5-methyl-6-oxo-5,6-dihydro-1,5-naphthyridine-2-carbonitrile] has an EC50 of 3 µM.
Work on C[C@@H]1CN(c2cc(=O)n(C)c3ccc(C#N)nc23)CC[C@H]1Oc1ccc(C(C)(C)C)cc1 [Example 88, 8-((3R,4R)-4-(4-(tert-butyl)phenoxy)-3-methylpiperidin-1-yl)-5-methyl-6-oxo-5,6-dihydro-1,5-naphthyridine-2-carbonitrile] yielded an EC50 of 0.88 µM.
C[C@@H]1CN(c2cc(=O)n(C)c3ccc(C#N)nc23)CC[C@H]1Oc1ccc(C2CCCCC2)cc1 (racemic) [Example 106, 8-((3R,4R)-4-(4-cyclohexylphenoxy)-3-methylpiperidin-1-yl)-5-methyl-6-oxo-5,6-dihydro-1,5-naphthyridine-2-carbonitrile] showed an EC50 of 2.2 µM.
In the case of C[C@@H]1CN(c2cc(=O)n(C)c3ccc(C#N)nc23)CC[C@H]1Oc1ccc(F)cc1 [Example 128, 8-((3R,4R)-4-(4-fluorophenoxy)-3-methylpiperidin-1-yl)-5-methyl-6-oxo-5,6-dihydro-1,5-naphthyridine-2-carbonitrile], the EC50 is reported as 20 µM.

Same assay, conditions: Homo sapiens, human whole blood IFN-γ; read-out: INFg Whole Blood
C[C@@H]1CN(c2cc(=O)n(C)c3ccc(C#N)nc23)CC[C@@H]1Oc1ncccn1 [Example 217, 5-methyl-8-((3R,4S)-3-methyl-4-(pyrimidin-2-yloxy)piperidin-1-yl)-6-oxo-5,6-dihydro-1,5-naphthyridine-2-carbonitrile] gave an EC50 of 20 µM.
C[C@@H]1CN(c2c(C#N)c(=O)n(C)c3ccc(C#N)nc23)CC[C@@H]1Oc1ccc(C(F)(F)F)cc1 [Example 189, 5-methyl-8-((3R,4S)-3-methyl-4-(4-(trifluoromethyl)phenoxy)piperidin-1-yl)-6-oxo-5,6-dihydro-1,5-naphthyridine-2,7-dicarbonitrile] gave an EC50 of 20 µM.
C[C@@H]1CN(c2cc(=O)n(C)c3ccc(C#N)nc23)CC[C@@H]1Oc1ccc(C(F)(F)F)cn1 [Example 225, 5-methyl-8-((3R,4S)-3-methyl-4-((5-(trifluoromethyl)pyridin-2-yl)oxy)piperidin-1-yl)-6-oxo-5,6-dihydro-1,5-naphthyridine-2-carbonitrile] showed an EC50 of 1.8 µM.
With CC(C)c1ccnc(O[C@H]2CCN(c3cc(=O)n(C)c4ccc(C#N)nc34)C[C@H]2C)c1 [Example 211, 8-((3R,4S)-4-((4-isopropylpyridin-2-yl)oxy)-3-methylpiperidin-1-yl)-5-methyl-6-oxo-5,6-dihydro-1,5-naphthyridine-2-carbonitrile] the EC50 was 3.9 µM.
In the case of CC(C)c1cccc(O[C@H]2CCN(c3cc(=O)n(C)c4ccc(C#N)nc34)C[C@H]2C)n1 [Example 214, 8-((3R,4S)-4-((6-isopropylpyridin-2-yl)oxy)-3-methylpiperidin-1-yl)-5-methyl-6-oxo-5,6-dihydro-1,5-naphthyridine-2-carbonitrile], the EC50 is reported as 5 µM.
Compound CC(C)Oc1ccc(O[C@@H]2CCN(c3cc(=O)n(C)c4ccc(C#N)nc34)C[C@H]2C)nc1 (mixture of isomers) [Example 199, 8-((3R,4R)-4-((5-isopropoxypyridin-2-yl)oxy)-3-methylpiperidin-1-yl)-5-methyl-6-oxo-5,6-dihydro-1,5-naphthyridine-2-carbonitrile] has an EC50 of 2.1 µM.
C[C@@H]1CN(c2cc(=O)n(C)c3ccc(C#N)nc23)CC[C@@H]1Oc1ccc(C(F)(F)F)cc1 (racemic) [Example 186, (+/−) 5-methyl-8-(cis-3-methyl-4-(4-(trifluoromethyl)phenoxy)piperidin-1-yl)-6-oxo-5,6-dihydro-1,5-naphthyridine-2-carbonitrile] gave an EC50 of 1.6 µM.
C[C@@H]1CN(c2cc(=O)n(C)c3ccc(C#N)nc23)CC[C@@H]1OCc1ccc(OC(F)(F)F)cc1 (racemic) [Example 235, (+/−) 5-methyl-8-(cis-3-methyl-4-((4-(trifluoromethoxy)benzyl)oxy)piperidin-1-yl)-6-oxo-5,6-dihydro-1,5-naphthyridine-2-carbonitrile] gave an EC50 of 5.2 µM.

Same assay, conditions: human whole blood IFN-γ; read-out: INFg Whole Blood
Compound C[C@@H]1CN(c2cc(=O)n(C)c3ccc(C#N)nc23)CC[C@@H]1Oc1ccc(C(F)(F)F)cn1 (single isomer, unassigned) [Example 227] has an EC50 of 4.2 µM.
For C[C@@H]1CN(c2cc(=O)n(C)c3ccc(C#N)nc23)CC[C@@H]1Oc1ccc(C(F)(F)F)cc1 (single isomer, unassigned) [Example 188, 5-methyl-8-(cis-3-methyl-4-(4-(trifluoromethyl)phenoxy)piperidin-1-yl)-6-oxo-5,6-dihydro-1,5-naphthyridine-2-carbonitrile (rel)], the EC50 was 6.4 µM.
For CO[C@@H]1CN(c2cc(=O)n(C)c3ccc(C#N)nc23)CC[C@H]1Oc1cccc(C(F)(F)F)c1 (racemic) [Example 262, (±)-trans-8-(3-methoxy-4-(3-(trifluoromethyl)phenoxy)piperidin-1-yl)-5-methyl-6-oxo-5,6-dihydro-1,5-naphthyridine-2-carbonitrile], the EC50 was 12 µM.
CC(C)Oc1ccc(OC2CCN(c3cc(=O)n(C)c4ccc(C#N)nc34)CC2(C)C)nc1 (single isomer, unassigned) [Example 233, 8-(4-((5-isopropoxypyridin-2-yl)oxy)-3,3-dimethylpiperidin-1-yl)-5-methyl-6-oxo-5,6-dihydro-1,5-naphthyridine-2-carbonitrile (rel)] showed an EC50 of 3.3 µM.
For CO[C@H]1CN(c2cc(=O)n(C)c3ccc(C#N)nc23)CC[C@@H]1Oc1ccc(OC(C)C)cn1 (racemic) [Example 269, (±)-trans-8-(4-((5-isopropoxypyridin-2-yl)oxy)-3-methoxypiperidin-1-yl)-5-methyl-6-oxo-5,6-dihydro-1,5-naphthyridine-2-carbonitrile], the EC50 was 1.6 µM.
In the case of CO[C@@H]1CN(c2nc(=O)n(C)c3ccc(C#N)nc23)CC[C@H]1Oc1cccc(C(F)(F)F)c1 (racemic) [Example 276], the EC50 is reported as 1 µM.

Same assay, conditions: human whole blood, anti-CD3 plus anti-CD28, 24 hours; read-out: INFg Whole Blood Normalized Agonist EC50
C[C@@H]1CN(c2cc(=O)n(C)c3ccc(C#N)nc23)CC[C@H]1Oc1c(F)cccc1F (single isomer, unassigned) [Example 127] was tested, and the EC50 was 20 µM.
Compound CC[C@@H]1CN(c2cc(=O)n(C)c3ccc(C#N)nc23)CC[C@H]1Oc1ccc(C(C)(C)CC)cc1 (single isomer, unassigned) [Example 151] has an EC50 of 2.4 µM.
CC[C@@H]1CN(c2cc(=O)n(C)c3ccc(C#N)nc23)CC[C@H]1Oc1ccc(C(F)(F)F)cc1 (single isomer, unassigned) [Example 148] showed an EC50 of 12 µM.
CC[C@@H]1CN(c2cc(=O)n(C)c3ccc(C#N)nc23)CC[C@H]1Oc1ccc(C(C)(C)C)cc1 (single isomer, unassigned) [Example 154] was tested, and the EC50 was 11 µM.
With CC[C@@H]1CN(c2cc(=O)n(C)c3ccc(C#N)nc23)CC[C@H]1Oc1cccc(C2CC2)c1 [Example 157, 8-((3R,4R)-4-(3-cyclopropylphenoxy)-3-ethylpiperidin-1-yl)-5-methyl-6-oxo-5,6-dihydro-1,5-naphthyridine-2-carbonitrile] the EC50 was 2.8 µM.
CC[C@@H]1CN(c2cc(=O)n(C)c3ccc(C#N)nc23)CC[C@H]1Oc1ccc(C(C)(C)C)cc1 (single isomer, unassigned) [Example 153] was tested, and the EC50 was 1.7 µM.
In the case of C[C@@H]1CN(c2cc(=O)n(C)c3ccc(C#N)nc23)CC[C@H]1Oc1ccc(OC(F)(F)F)cc1 (single isomer, unassigned) [Example 81, 6-cyano-1-methyl-4-(trans-3-methyl-4-(4-(trifluoromethoxy)phenoxy)piperidin-1-yl)-1,5-naphthyridin-2(1H)-one (rel)], the EC50 is reported as 2 µM.
Compound C[C@@H]1CN(c2cc(=O)n(C)c3ccc(C#N)nc23)CC[C@H]1Oc1ccc(C(F)(F)F)cc1 (single isomer, unassigned) [Example 99] has an EC50 of 2.9 µM.
